Entries after “also recorded” stand apart in the source; their conditions may differ.
Tests used:
Type in all cases: cell-based, rat
hepatocytes [1] = test: Glucose phosphorylation in hepatocytes ([2-3H]glucose to 3H2O); details: 2 hours, 10 nM insulin, 5, 15 or 25 mM glucose, 10 μM GKA vs glucose alone (FIG. 2A)
Protocol: (§1) Hepatocytes were isolated from male Wistar rats (body wt 200-300 g) (Envigo, Bicester, UK). Procedures conformed to Home Office Regulations. The hepatocytes were suspended in Minimum Essential Medium (MEM) 21430 (Life Technologies, GIBCO BRL, Grand Island, N.Y.) with 5% (v/v) calf serum (Life Technologies, GIBCO BRL, Grand Island, N.Y.) and seeded on gelatin-coated plates. After cell attachment (˜4 hours) the medium was replaced by serum-free medium containing 5 mM glucose, 10 nM dexamethasone, 1 nM insulin and experiments were started after ˜20 hours culture by challenge with media containing 5 mM glucose, 15 mM glucose or 25 mM glucose and other additions as indicated.

hepatocytes [2] = test: Cell G6P / hexose 6-phosphate (H6P) determination in hepatocytes; details: for glucose-6-phosphate concentration / H6P concentration: hepatocytes; for glucose-6-phosphate concentration: 2 hours, 10 nM insulin, 5, 15 or 25 mM glucose, 10 μM GKA vs glucose alone (FIG. 2B); for H6P concentration: 5 or 10 mM DG with 5 mM glucose (FIG. 6B)
Protocol: as §1
Hepatocytes were incubated for 1 or 2 hours in MEM containing 10 nM insulin and 5, 15, or 25 mM glucose with or without 10μM GKA 3-cyclopentyl-2-(4-methanesulfonylphenyl)-N-thiazol-2-yl-propionamide (RO 28-1675) (Axon MedChem BV, Groningen) for determination of glucose phosphorylation (nmol/2 h per mg) and cell G6P (nmol/mg protein).
(§2) Incubations with 2-deoxyglucose (DG) where carried out as described previously but with 5 or 10 mM DG with 5 mM glucose (5G) and with or without 2 μM S4048.
Medium containing the cultured hepatocytes was drained from cell culture plates and the plates were snap-frozen in liquid nitrogen and stored at −80° C. For H6P determination, cells were extracted in 2.5% sulphosalicylic acid for deproteinization (10,000g, 10 min) and the supernatants were then neutralized with KOH/KH^2PO4 (3 M/1 M) and metabolites assayed on the neutralized deproteinized extracts. For fructose 2,6-P2, cells were extracted in 0.15 M NaOH.
For G6P and H6P determination the assay procedure involved coupling of the dehydrogenation of G6P by glucose-6-phosphate dehydrogenase to the […] by the reduction of the molecule resazurin to resorufin by NADP measured by the […]. Standards of G6P (2 to 20 μM) were prepared in 2.5% sulphosalicylic acid and neutralized with KOH/KH2PO4 (3 M/1 M) as in samples for metabolite determination. Standards and samples (20 μl) were then assayed in a final reaction volume of 200 μI containing 50 mM triethanolamine (TEA, pH 7.6), 1.0 mM MgCl2, 100 μM NADP+, 10 μM resazurin, 0.1 U/ml G6PD, and 0.2 U/ml diaphorase. The mixtures were then incubated for 30 min at room temperature. Fluorescence at 590 nm was measured using excitation at 530 nm using a plate reader (M5E Molecular devices). Background fluorescence was corrected by subtracting the value of the no-G6P control from all sample readings and sample values were read off the linear standard curve determined from the G6P standards.
Metabolites are expressed as nmol/mg protein except for fructose 2,6-P2 which is expressed as pmol/mg of total cell protein determined by a Lowry assay.

hepatocytes [3] = test: Fructose 2,6-bisphosphate determination in hepatocytes; details: 4 hours, GKA with 15 mM glucose vs 5 mM and 15 mM glucose alone, without or with 10 nM insulin (FIG. 3A), listed as GKA
Protocol: as §1
(§3) Incubations for mRNA analysis and fructose 2,6-bisphosphate were for 4 hrs in MEM with 5, 15, or 25 mM glucose with or without 10 nM insulin and with or without 2 mM fructose. In samples including GKA, 10 μM GKA RO 28-1675 was added.

Gck mRNA = test: Relative Gck mRNA expression in hepatocytes (real-time RT-PCR); details: for relative expression of Gck mRNA: 4 hours, listed as GKA; for Gck mRNA relative expression: 5 or 10 mM DG with 5 mM glucose (FIG. 6D)
Protocol: as §1, §3, §2
(§4) RNA was extracted using TRIzol (Invitrogen) and cDNA was synthesized from 1 μg of RNA with MMLV (Promega). Real-time RT-PCR was performed in a total volume of 10 μl containing 50 ng of reverse transcribed RNA and 5 ng of forward and reverse primers using a Sybr-Green protocol (Promega) in a Roche Capillary Light Cycler. Relative mRNA levels (vs control) were calculated by the delta cycle threshold method.

G6pc mRNA = test: Relative G6pc mRNA expression in hepatocytes (real-time RT-PCR); details: for relative expression of G6pc mRNA: 4 hours; for G6pc mRNA relative expression: 5 or 10 mM DG with 5 mM glucose (FIG. 6C)
Protocol: as §1, §3, §2, §4

Pklr mRNA = test: Relative Pklr mRNA expression in hepatocytes (real-time RT-PCR); details: 4 hours, listed as GKA
Protocol: as §1, §3, §2
RNA was extracted using TRIzol (Invitrogen) and cDNA was synthesized from 1 μg of RNA with MMLV (Promega). […] Relative mRNA levels (vs control) were calculated by the delta cycle threshold method.

Row | SMILES | glucose phosphorylation (hepatocytes [1]) | glucose phosphorylation (hepatocytes [1]; listed as GKA) | fractional increase in G6P compared with fractional increase in metabolic flux (hepatocytes [2]; basal (5 mM) and moderate (15 mM) glucose, 10 μM GKA) | glucose-6-phosphate concentration (hepatocytes [2]) | glucose-6-phosphate concentration (hepatocytes [2]; listed as GKA) | fructose 2,6-bisphosphate concentration (hepatocytes [3]) | relative expression of Gck mRNA (Gck mRNA; 10 nM insulin, 5, 15 or 25 mM glucose, -/+ 10 μM GKA (FIG. 4A)) | relative expression of Gck mRNA (Gck mRNA; GKA with 15 mM glucose vs 5 mM and 15 mM glucose alone (FIG. 3D)) | relative expression of G6pc mRNA (G6pc mRNA; 10 nM insulin, 5, 15 or 25 mM glucose, -/+ 10 μM GKA (FIG. 4C), listed as GKA) | relative expression of G6pc mRNA (G6pc mRNA; GKA with 15 mM glucose vs 5 mM and 15 mM glucose alone (FIG. 3B)) | relative expression of Pklr mRNA (Pklr mRNA; 10 nM insulin, 5, 15 or 25 mM glucose, -/+ 10 μM GKA (FIG. 4B)) | relative expression of Pklr mRNA (Pklr mRNA; GKA with 15 mM glucose vs 5 mM and 15 mM glucose alone (FIG. 3C)) | H6P concentration (hepatocytes [2]) | H6P concentration (hepatocytes [2]; listed as 2DG) | Gck mRNA relative expression (Gck mRNA) | Gck mRNA relative expression (Gck mRNA; listed as 2DG) | G6pc mRNA relative expression (G6pc mRNA) | G6pc mRNA relative expression (G6pc mRNA; listed as 2DG)
1 | CS(=O)(=O)c1ccc(C(CC2CCCC2)C(=O)Nc2nccs2)cc1 (stereo not drawn) [RO 28-1675, 3-cyclopentyl-2-(4-methanesulfonylphenyl)-N-thiazol-2-yl-propionamide] | increased phosphorylation more than glucose alone | increases the rate of phosphorylation of glucose | greater | increased the concentration of G6P more than glucose alone | increases the cell concentration of G6P at all glucose concentrations | increase in F-2,6-P2; also recorded: increases F-2,6-P2 more than 5 mM glucose and 15 mM glucose | represses the relative expression of Gck; also recorded: able to reduce Gck expression; also recorded: reduced the relative expression of Gck mRNA at all glucose concentrations | decrease in relative expression of Gck mRNA; also recorded: decreased relative expression of Gck mRNA | induces the expression of both G6pc and Pklr mRNA; also recorded: increased relative expression of Pklr mRNA and G6pc mRNA at all glucose concentrations | increase in relative expression of both Pklr and G6pc mRNA | induces the expression of both G6pc and Pklr mRNA; also recorded: increased relative expression of Pklr mRNA | increase in relative expression of both Pklr and G6pc mRNA; also recorded: increased relative expression of Pklr mRNA | – | – | – | – | – | –
2 | O=CC[C@@H](O)[C@H](O)[C@H](O)CO [DG, 2-deoxyglucose] | – | – | – | – | – | – | – | – | – | – | – | – | causes elevation in the cell hexose 6-phosphate (H6P) content | H6P concentration increases with increasing 2DG | repression of Gck mRNA | decrease in Gck mRNA expression | does not cause induction of expression of G6pc mRNA | does not affect G6pc mRNA relative expression

Source: patent US20200188394A1, “TREATMENT OF LIVER DISEASE” (UNIVERSITY OF NEWCASTLE UPON TYNE, priority 2016, published 2020)
